Literature values, collected in patent EP0084011B1, “Quinoline carboxylic acid complexes with guanidinium carbonate and guanidine” (Merck & Co., Inc., priority 1982, dated 1983).
Values after ≈ are worked out from the molar mass of the structure shown.

CCn1cc(C(=O)O)c(=O)c2cc(F)c(N3CCNCC3)cc21 [Parent, 1-ethyl-6-fluoro-1,4-dihydro-4-oxo-7-(1-piperazinyl)-3-quinoline carboxylic acid]
Solubility (in water, 25 °C, reported water solubility of the parent compound): 200 µg/mL (≈ 626 µM)
water solubility (pH range of 6-10, background statement): very low water solubility
